Results as given in ChEMBL document CHEMBL4725298, “Exploration of piperazine-derived thioureas as antibacterial and anti-inflammatory agents. In vitro evaluation against clinical isolates of colistin-resistant Acinetobacter baumannii” (Bioorg Med Chem Lett, 2020).
Values after ≈ are worked out from the molar mass of the structure shown. Active and inactive are the calls of the source. The calls are words filed in the database; no cut-off is given here.

Key:
[1] = system: Acinetobacter baumannii; assay: Antibacterial activity against colistin-resistant Acinetobacter baumannii 17 assessed as reduction in bacterial growth incubated for 24 hrs by standard broth microdilution method; type: functional
[2] = system: RAW264.7; assay: Antiinflammatory activity against mouse RAW264.7 cells assessed as reduction in LPS-induced NO production at 50 uM incubated for 24 hrs by Griess assay; type: functional, cell-based
[3] = system: Acinetobacter baumannii; assay: Antibacterial activity against colistin-resistant Acinetobacter baumannii 14 assessed as reduction in bacterial growth incubated for 24 hrs by standard broth microdilution method; type: functional
[4] = Cytotoxicity against human A549 cells; type: cell-based
[5] = system: RAW264.7; assay: Antiinflammatory activity against mouse RAW264.7 cells assessed as reduction in LPS-induced NO production at 1 to 10 uM incubated for 24 hrs by Griess assay relative to control; type: functional; conditions: dose microM 1-10
[6] = system: RAW264.7; assay: Cytotoxicity against mouse RAW264.7 cells assessed as reduction in cell viability at 1 to 10 uM incubated for 24 hrs; type: cell-based; conditions: raw264.7, 24 h, dose 1-10 µM
[7] = system: Acinetobacter baumannii; assay: Antibacterial activity against colistin-resistant Acinetobacter baumannii 21R assessed as reduction in bacterial growth incubated for 24 hrs by standard broth microdilution method; type: functional
[8] = system: Acinetobacter baumannii; assay: Antibacterial activity against colistin-resistant Acinetobacter baumannii 22P assessed as reduction in bacterial growth incubated for 24 hrs by standard broth microdilution method; type: functional
[9] = system: Acinetobacter baumannii; assay: Antibacterial activity against colistin-resistant Acinetobacter baumannii 24 assessed as reduction in bacterial growth incubated for 24 hrs by standard broth microdilution method; type: functional
[10] = system: Acinetobacter baumannii; assay: Antibacterial activity against colistin-resistant Acinetobacter baumannii 11 assessed as reduction in bacterial growth incubated for 24 hrs by standard broth microdilution method; type: functional
[11] = system: Acinetobacter baumannii; assay: Antibacterial activity against Acinetobacter baumannii 22P assessed as fractional inhibitory concentration incubated for 24 hrs by standard broth microdilution method relative to control; type: functional
[12] = system: Acinetobacter baumannii; assay: Antibacterial activity against Acinetobacter baumannii 21R assessed as fractional inhibitory concentration incubated for 24 hrs by standard broth microdilution method relative to control; type: functional
[13] = system: Acinetobacter baumannii; assay: Antibacterial activity against Acinetobacter baumannii 22P assessed as reduction in bacterial growth in presence of colistin incubated for 24 hrs by standard broth microdilution method; type: functional
[14] = system: Acinetobacter baumannii; assay: Bactericidal activity against colistin-resistant Acinetobacter baumannii 21R at 4 times of MIC incubated for 4 hrs by time kill curve based analysis; type: functional, organism-based
[15] = system: Acinetobacter baumannii; assay: Bactericidal activity against colistin-resistant Acinetobacter baumannii 21R assessed as log10 reduction of bacterial colony forming unit at 2 times of MIC incubated for 4 hrs by time kill curve based analysis; type: functional
[16] = system: Acinetobacter baumannii; assay: Bactericidal activity against colistin-resistant Acinetobacter baumannii 22P at 12.5 to 50 uM incubated upto 24 hrs by time kill curve based analysis; type: functional, organism-based; conditions: dose microM 12.5-50, time hrs <=24
[17] = system: Acinetobacter baumannii; assay: Synergistic antibacterial activity against Acinetobacter baumannii 22P assessed as fractional inhibitory concentration index incubated for 24 hrs in presence of colistin by standard broth microdilution method; type: functional
[18] = system: Acinetobacter baumannii; assay: Synergistic antibacterial activity against Acinetobacter baumannii 21R assessed as fractional inhibitory concentration index incubated for 24 hrs in presence of colistin by standard broth microdilution method; type: functional
[19] = system: Acinetobacter baumannii; assay: Antibacterial activity against Acinetobacter baumannii 21R assessed as reduction in bacterial growth in presence of colistin incubated for 24 hrs by standard broth microdilution method; type: functional
[20] = system: Acinetobacter baumannii; assay: Potentiation of colistin-induced antibacterial activity against Acinetobacter baumannii 21R assessed as fold reduction in colistin MIC incubated for 24 hrs by standard broth microdilution method; type: functional
[21] = system: Acinetobacter baumannii; assay: Potentiation of colistin-induced antibacterial activity against Acinetobacter baumannii 22P assessed as fold reduction in colistin MIC incubated for 24 hrs by standard broth microdilution method; type: functional

Row | Molecule | inhibition [2] | MIC [3] [µM] | CC50 [4] [µM] | inhibition (INH) [5] | MIC [7] [µM] | MIC [8] [µM] | MIC [9] [µM] | further results
1 | O=C(Cc1ccccc1)N1CCN(C(=S)Nc2cc(C(F)(F)F)cc(C(F)(F)F)c2)C(c2ccccc2)C1 (stereo not drawn) | Active | – | – | – | – | – | – | MIC [1]: 3.12 µM (≈ 1.72 µg/mL)
2 | CC(C)(C)OC(=O)N1CCN(C(=S)Nc2cc(C(F)(F)F)cc(C(F)(F)F)c2)C(c2ccccc2)C1 (stereo not drawn) | Active | 12.5 (≈ 6.67 µg/mL) | 127 | >=80% | – | – | – | MIC [1]: 6.25 µM (≈ 3.33 µg/mL); Activity [6]: Toxic
3 | CC1CN(C(=O)CC2CCCCC2)CCN1C(=S)Nc1cc(C(F)(F)F)cc(C(F)(F)F)c1 (stereo not drawn) | Active | 50 (≈ 24.8 µg/mL) | 82 | 40% | 3.12 (≈ 1.55 µg/mL) | 1.56 (≈ 0.773 µg/mL) | 25 (≈ 12.4 µg/mL) | –
4 | CC(C)(C)CC(=O)N1CCN(C(=S)Nc2cc(C(F)(F)F)cc(C(F)(F)F)c2)C(c2ccccc2)C1 (stereo not drawn) | Active | – | – | >=80% | 3.12 (≈ 1.66 µg/mL) | 3.12 (≈ 1.66 µg/mL) | 3.12 (≈ 1.66 µg/mL) | MIC [10]: 3.12 µM (≈ 1.66 µg/mL)
5 | CC1CN(C(=O)OC(C)(C)C)CCN1C(=S)Nc1cc(C(F)(F)F)cc(C(F)(F)F)c1 (stereo not drawn) | Active | 3.12 (≈ 1.47 µg/mL) | 112 | 40% | – | – | – | –
6 | CC1CN(C(=O)CC2CCCCC2)CCN1C(=S)Nc1ccc([N+](=O)[O-])cc1 (stereo not drawn) | Active | – | – | – | 25 (≈ 10.1 µg/mL) | 12.5 (≈ 5.06 µg/mL) | – | Activity [10]: inactive; Activity [3]: inactive; Activity [1]: inactive; Activity [9]: inactive
7 | O=C(CC1CCCCC1)N1CCN(C(=S)Nc2cc(C(F)(F)F)cc(C(F)(F)F)c2)C(c2ccccc2)C1 (stereo not drawn) | Active | – | 125 | >=80% | 3.12 (≈ 1.74 µg/mL) | 6.25 (≈ 3.49 µg/mL) | 3.12 (≈ 1.74 µg/mL) | MIC [10]: 3.12 µM (≈ 1.74 µg/mL); Activity [6]: Toxic
8 | CC1CN(C(=O)CC(C)(C)C)CCN1C(=S)Nc1cc(C(F)(F)F)cc(C(F)(F)F)c1 (racemic) | Active | 50 (≈ 23.5 µg/mL) | 73.2 | 40% | 6.25 (≈ 2.93 µg/mL) | 6.25 (≈ 2.93 µg/mL) | 6.25 (≈ 2.93 µg/mL) | –
9 | CC1CN(C(=O)CC2CCCCC2)CCN1C(=S)Nc1ccc(C(F)(F)F)cc1 (stereo not drawn) | – | 12.5 (≈ 5.34 µg/mL) | – | – | 25 (≈ 10.7 µg/mL) | 6.25 (≈ 2.67 µg/mL) | 3.12 (≈ 1.33 µg/mL) | –
10 | CC1CN(C(=O)CC2CCCCC2)CCN1C(=S)Nc1ccc(C#N)cc1 (stereo not drawn) | Active | – | – | – | – | – | – | Activity [10]: inactive; Activity [3]: inactive; Activity [1]: inactive; Activity [7]: inactive; Activity [8]: inactive; Activity [9]: inactive
11 | CC1CN(C(=O)Cc2ccccc2)CCN1C(=S)Nc1ccc(C(F)(F)F)cc1 (stereo not drawn) | Active | – | – | – | – | – | – | Activity [10]: inactive; Activity [3]: inactive; Activity [1]: inactive; Activity [7]: inactive; Activity [8]: inactive; Activity [9]: inactive
12 | COLISTIN | – | 56 | – | – | 1770 | 3540 | 7 | MIC [10]: 14 µM; MIC [1]: > 111 µM; FIC [11]: 0.25; FIC [12]: 0.38
13 | CC(C)(C)OC(=O)N1CCN(C(=S)Nc2cc(C(F)(F)F)cc(C(F)(F)F)c2)CC1 | Active | 6.25 (≈ 2.86 µg/mL) | 109 | – | 6.25 (≈ 2.86 µg/mL) | 12.5 (≈ 5.72 µg/mL) | – | MIC [13]: 1.56 µM; MIC [10]: 12.5 µM (≈ 5.72 µg/mL); MIC [1]: 6.25 µM (≈ 2.86 µg/mL); Activity [14]: Active; Activity [15]: 3 log10CFU/ml; Activity [16]: inactive; fractional inhibitory concentration index (FICI) [17]: 0.37; fractional inhibitory concentration index (FICI) [18]: 0.5; FIC [11]: 0.12; FIC [12]: 0.12; MIC [19]: 0.78 µM; fold change (FC) [20]: 4; fold change (FC) [21]: 4
14 | CC1CN(C(=O)CC2CCCCC2)CCN1C(=S)Nc1ccc(Cl)cc1 (stereo not drawn) | – | 50 (≈ 19.7 µg/mL) | 200 | – | 12.5 (≈ 4.92 µg/mL) | 12.5 (≈ 4.92 µg/mL) | 25 (≈ 9.85 µg/mL) | –
15 | CC1CN(C(=O)Cc2ccccc2)CCN1C(=S)Nc1ccc(Cl)cc1 (stereo not drawn) | Active | – | – | – | – | – | – | Activity [10]: inactive; Activity [3]: inactive; Activity [1]: inactive; Activity [7]: inactive; Activity [8]: inactive; Activity [9]: inactive
16 | C[C@H]1CN(C(=O)CC(C)(C)C)CCN1C(=S)Nc1cc(C(F)(F)F)cc(C(F)(F)F)c1 | – | – | 73.5 | – | 6.25 (≈ 2.93 µg/mL) | 6.25 (≈ 2.93 µg/mL) | 12.5 (≈ 5.87 µg/mL) | –
17 | CC1CN(C(=O)Cc2ccccc2)CCN1C(=S)Nc1cc(C(F)(F)F)cc(C(F)(F)F)c1 (stereo not drawn) | Active | 3.12 (≈ 1.53 µg/mL) | 130 | – | 3.12 (≈ 1.53 µg/mL) | – | 6.25 (≈ 3.06 µg/mL) | MIC [10]: 6.25 µM (≈ 3.06 µg/mL); MIC [1]: 3.12 µM (≈ 1.53 µg/mL)
18 | C[C@@H]1CN(C(=O)CC(C)(C)C)CCN1C(=S)Nc1cc(C(F)(F)F)cc(C(F)(F)F)c1 | – | – | 162 | – | 6.25 (≈ 2.93 µg/mL) | 12.5 (≈ 5.87 µg/mL) | 6.25 (≈ 2.93 µg/mL) | –
